The source of these data is patent publication US20230124862A1, “BISMUTH THIOL COMPOUNDS AND COMPOSITIONS AND METHODS OF TREATING MICROBIAL CO-INFECTIONS” (Microbion Corporation, priority 2020, published 2023).

The subject of experiment [1] is E. coli ATCC 25922. Description: MIC control strain. The following applies: QC organism, Example 13.
For experiment [2], the system named is Candida krusei. Briefly: Antifungal broth microdilution (Example 13). In kind it is cell-based. For orientation: Broth dilution looks for growth in wells or tubes with falling amounts of substance.
Experiment [3] concerns C. parapsilosis ATCC 22019. Description: Antifungal broth microdilution (Example 13), QC organism. It is filed as cell-based, Candida parapsilosis. The following applies: comparators, single value.
For experiment [4], the system named is Aspergillus spp. Description: Antifungal broth microdilution (Example 13). In kind it is cell-based, A. niger, A. terreus, A. fumigatus, A. flavus.
In experiment [5] the test system is Candida krusei. The following applies: C. krusei ATCC 6258, CLSI established QC range, cited from earlier work.
The subject of experiment [6] is C. parapsilosis ATCC 22019. The following applies: cited from earlier work.
Experiment [7] concerns S. aureus ATCC 29213. Description: MIC control strain. The following applies: QC organism, Example 13.
Experiment [8] has as its system S. aureus ATCC 29213. The following applies: control strain ATCC 29213; cited from earlier work.
The subject of experiment [9] is P. aeruginosa and A. baumannii. The following applies: P. aeruginosa MMX 103 (ATCC 27853); CLSI QC ranges shown in parenthesis; cited from earlier work.
Experiment [10] deals with Enterobacteriaceae. The following applies: E. coli MMX 102 (ATCC 25922); CLSI QC ranges shown in parenthesis; cited from earlier work.
Experiment [11] has as its system P. aeruginosa and A. baumannii. Briefly: Broth microdilution MIC (Example 11). In kind it is cell-based, Pseudomonas aeruginosa, Acinetobacter baumannii.
Experiment [12] has as its system Enterobacteriaceae. Briefly: Broth microdilution MIC (Example 11). In kind it is cell-based, E. coli, K. pneumoniae, Enterobacter cloacae.
Experiment [13] has as its system S. aureus. Briefly: Broth microdilution MIC (Example 11). It is filed as cell-based, Staphylococcus aureus.
In experiment [14] the test system is Enterococcus spp. Briefly: Broth microdilution MIC (Example 11). It is filed as cell-based, E. faecalis, E. faecium. The following applies: Lev^R Cip^R Ery^R.
The subject of experiment [15] is S. aureus. The following applies: S. aureus MMX 101 (ATCC 29213); cited from earlier work.

Values after ≈ are worked out from the molar mass of the structure shown. Values joined by “and” are separate entries in the source; they are usually repeats but may differ in a detail not shown here. Identical values can stand only once. Like-named read-outs stand apart in the source and are kept apart here. Starred links: 1 amine or outer side, 2 acyl side, 3 side chain; linkers in the order of their positions; H or OH if unused. Positions of bridges follow the written chain, without caps; N, C: chain ends. Non-standard residues stand in square brackets, D forms with d. Residues, ends and D or L forms follow the SMILES beside them. *: point of attachment. hTyr(3S-OH,4S-OH,3'-OSO3H) = N[C@H](C(=O)O)[C@H](O)[C@@H](O)c1ccc(O)c(OS(=O)(=O)O)c1; Orn(4R-OH,5R-OH) = O=C([C@H](C[C@@H](O)[C@@H](O)N[*:3])N[*:1])[*:2]; Pro(3S-OH,4S-Me) = C[C@H]1CN[C@H](C(=O)O)[C@H]1O; X1 = CCCCCOc1ccc(-c2cc(-c3ccc(C(=O)*)cc3)no2)cc1; Gln(3R-OH) = NC(=O)C[C@@H](O)[C@H](N)C(=O)O; Hyp = O=C(O)[C@@H]1C[C@@H](O)CN1

What is called MIC is the lowest concentration that inhibits growth of the organism. A high value points to weaker potency.

On to `CC[C@H](C)C[C@H](C)CCCCCCCCC(=O)N[C@H]1C[C@@H](O)[C@@H](NCCN)NC(=O)[C@@H]2[C@@H](O)CCN2C(=O)[C@H]([C@H](O)CCN)NC(=O)[C@H]([C@H](O)[C@@H](O)c2ccc(O)cc2)NC(=O)[C@@H]2C[C@@H](O)CN2C(=O)[C@H]([C@@H](C)O)NC1=O` [Caspofungin], for which the “MIC 24 hr” value was greater than 64 in [1]; 0.25 µg/mL (≈ 0.229 µM) in experiment [2] (C. krusei ATCC 6258, 24 hr, comparators, single value); 0.25 µg/mL (≈ 0.229 µM) in [3]; greater than 64 in experiment [7]. The MIC 48 hr in [2] (C. krusei ATCC 6258, 48 hr, comparators, single value) worked out at 0.25 µg/mL (≈ 0.229 µM); in experiment [3] it was 0.5 µg/mL (≈ 0.457 µM). In addition, the “MIC 24 hr (MEC)” value in [4] (A. flavus ATCC 204304, 24 hr, MEC) is reported as 0.12 (MEC); in [4] (A. fumigatus ATCC MYA-3626, 24 hr, MEC) it was 0.06 (MEC). The “MIC 48 hr (MEC)” value in experiment [4] (A. flavus ATCC 204304, 48 hr, MEC) was 0.06 (MEC); in [4] (A. fumigatus ATCC MYA-3626, 48 hr, MEC), 0.06 (MEC). Further, the “QC Range 24 hr” value in experiment [5] is given as 0.12-1; in [6] (C. parapsilosis ATCC 22019, CLSI established QC range, 24 hr) it was 0.25-1. Also, the “QC Range 48 hr” value was 0.25-2 in experiment [5] and 0.5-4 in experiment [6] (C. parapsilosis ATCC 22019, CLSI established QC range, 48 hr).

With `CC[C@H]1OC(=O)[C@H](C)[C@@H](O[C@H]2C[C@@](C)(OC)[C@@H](O)[C@H](C)O2)[C@H](C)[C@@H](O[C@@H]2O[C@H](C)C[C@H](N(C)C)[C@H]2O)[C@](C)(OC)C[C@@H](C)C(=O)[C@H](C)[C@@H](O)[C@]1(C)O` [Clarithromycin, reference compound], the “Expected MIC: goal (acceptable range)” value in experiment [8] was 0.25 (0.12-0.5) mcg/mL.

With `CCCCCOc1ccc(-c2cc(-c3ccc(C(=O)N[C@H]4C[C@@H](O)[C@@H](O)NC(=O)[C@@H]5[C@@H](O)[C@@H](C)CN5C(=O)[C@H]([C@H](O)CC(N)=O)NC(=O)[C@H]([C@H](O)[C@@H](O)c5ccc(O)c(OS(=O)(=O)O)c5)NC(=O)[C@@H]5C[C@@H](O)CN5C(=O)[C@H]([C@@H](C)O)NC4=O)cc3)no2)cc1` [Micafungin] (X1-[Orn(4R-OH,5R-OH)]T[Hyp][hTyr(3S-OH,4S-OH,3'-OSO3H)][Gln(3R-OH)][Pro(3S-OH,4S-Me)]; lactam 1-C), the “MIC 24 hr” value in experiment [1] is greater than 64; in [2] it was 0.5 µg/mL (≈ 0.394 µM); in experiment [3], 0.5 µg/mL (≈ 0.394 µM); in experiment [7], greater than 64. In addition, the MIC 48 hr came to 0.5 µg/mL (≈ 0.394 µM) in [2] and 2 µg/mL (≈ 1.57 µM) in [3]. In addition, the “MIC 24 hr (MEC)” value in experiment [4] is 0.06 (MEC) and 0.03 (MEC). In experiment [4], the “MIC 48 hr (MEC)” value is on record as 0.008 (MEC). Also, the “QC Range 24 hr” value in experiment [5] is given as 0.12-0.5; in experiment [6] it was 0.5-2. Also, the “QC Range 48 hr” value in experiment [5] is 0.12-0.5; in experiment [6] it was 0.5-4.

For the compound Gentamicin, the “MIC, CLSI QC range” value in experiment [9] was “(0.5-2) μg/mL”; in experiment [10] it was “(0.25-1) μg/mL”. In addition, the MIC in [11] (A. baumannii MMX 2592, MDR, Lev^R Cip^R MEM^R CAZ^R Gm^R) is greater than 64 µg/mL; in experiment [11] (A. baumannii MMX 2593, MDR, Lev^R Cip^R MEM^R CAZ^R Gm^R) it was greater than 64 µg/mL; in experiment [11] (A. baumannii MMX 3372, MDR, Cip^R MEM^1 CAZ^1), 0.5 µg/mL; in [11] (A. baumannii MMX 3373, Sensitive), 0.12 µg/mL; in experiment [11] (A. baumannii MMX 4651 (NCTC 13304), MDR: OXA-27, Lev^R Cip^R MEM^R CAZ^R Gm^1) it was 8 µg/mL; in experiment [11] (P. aeruginosa MMX 103 (ATCC 27853), QC) it was 1 µg/mL. Further, the minimum inhibitory concentration (MIC) in [11] (P. aeruginosa MMX 1381, MDR, Lev^R Cip^R MEM^R CAZ^R) is 8 µg/mL; in experiment [11] (P. aeruginosa MMX 2562, MDR, Lev^R Cip^R MEM^R CAZ^R), 8 µg/mL; in experiment [11] (P. aeruginosa MMX 3991, MDR, Lev^R Cip^R MEM^R CAZ^R), 4 µg/mL; in experiment [11] (P. aeruginosa MMX 4654, IMP-7, Lev^R Cip^R MEM^R CAZ^R) it was greater than 64 µg/mL; in experiment [11] (P. aeruginosa MMX 4697, VIM-2, Lev^R Cip^R MEM^R CAZ^R), 4 µg/mL; in [12] (E. cloacae MMX 5981 (ATCC BAA-2468), NDM-1, Lev^R MEM^R CAZ^R Gm^R), greater than 64 µg/mL. The MIC in experiment [12] (E. coli MMX 102 (ATCC 25922), QC) was 1 µg/mL; in experiment [12] (E. coli MMX 5980 (ATCC BAA-2469), NDM-1, Lev^R MEM^R CAZ^R Gm^R) it was greater than 64 µg/mL; in [12] (E. coli MMX 8423, ESBL, Lev^R CAZ^R Gm^R), 64 µg/mL; in [12] (E. coli MMX 8424, ESBL, CAZ^R), 0.25 µg/mL; in experiment [12] (E. coli MMX 8425, ESBL, Lev^R CAZ^R Gm^R), greater than 64 µg/mL; in [12] (K. pneumoniae MMX 4622, KPC-2, MEM^R CAZ^R) it was 0.25 µg/mL. For the same compound, the MIC in [12] (K. pneumoniae MMX 4623, KPC-2, MEM^R CAZ^R Gm^R) was 64 µg/mL; in experiment [12] (K. pneumoniae MMX 4653, KPC-3, Lev^R MEM^R CAZ^R), 1 µg/mL; in experiment [12] (K. pneumoniae MMX 4683, KPC-2, Lev^R MEM^R CAZ^R) it was 1 µg/mL; in experiment [12] (K. pneumoniae MMX 4684, ESBL, MEM^R) it was 0.25 µg/mL; in experiment [12] (K. pneumoniae MMX 4685, ESBL, Lev^R MEM^R CAZ^R), 1 µg/mL; in experiment [12] (K. pneumoniae MMX 4694, KPC-3, Lev^R MEM^R CAZ^R), 8 µg/mL. Moreover, the MIC in experiment [12] (K. pneumoniae MMX 5979, NDM-1, Lev^R MEM^R CAZ^R Gm^R) is greater than 64 µg/mL; in [13] (S. aureus MMX 101 (ATCC 29213), QC, MSSA) it was 0.12 µg/mL; in experiment [13] (S. aureus MMX 5373, MRSA, Lev^R Cip^R CC^R Ery^R Ox^R) it was 0.25 µg/mL; in experiment [13] (S. aureus MMX 6311, MRSA, Lev^R Cip^R CC^R Ery^R Ox^R), 0.25 µg/mL; in experiment [13] (S. aureus MMX 9203, MRSA, Lev^R Cip^R Ery^R Ox^R), 0.12 µg/mL; in experiment [13] (S. aureus MMX 9204, MRSA, Lev^R Cip^R Ery^R Ox^R) it was 0.25 µg/mL. The minimal inhibitory concentration (MIC) was 0.25 µg/mL in experiment [13] (S. aureus MMX 9205, MRSA, Lev^R Cip^R CC^R Ery^R Ox^R); greater than 64 µg/mL in experiment [14] (E. faecalis MMX 8960, VRE); 8 µg/mL in experiment [14] (E. faecalis MMX 8961, VRE); greater than 64 µg/mL in experiment [14] (E. faecalis MMX 8962, VRE); greater than 64 µg/mL in experiment [14] (E. faecium MMX 485, VRE vanA); greater than 64 µg/mL in [14] (E. faecium MMX 752, VRE vanA). In experiment [15], the “CLSI QC range of MIC” value is on record as “(0.12-1) μg/mL”.
